PubChem BioAssay AID1985 (Southern Research Specialized Biocontainment Screening …, 2009)

Each compound was assayed on S. Typhi PhoP-promoter GFP reporter, fluorescence, 4 h (assay: PhoP regulon inhibitor project modified counter assay, GFP fluorescence readout, dose response (AID 1985)).

Structure (SMILES) | IC50 [µM]
Cc1ccc(C(C[N+](=O)[O-])Sc2ccc(N)cc2)cc1 (configuration not stated) | 29.5
CN(CC(=O)Nc1ccc(F)c(F)c1F)c1cnccn1 | 108
Cc1[nH]n(-c2ccccc2)c(=O)c1C(c1cccc([N+](=O)[O-])c1O)c1c(C)[nH]n(-c2ccccc2)c1=O | 48.5
Cc1cc(O)c2c(c1)C(=O)C13C(=C2O)C(=O)[C@H]2[C@@H](O)[C@@H]1[C@H]1[C@H](O)[C@@H]3C(=O)C3=C(O)c4c(O)cc(C)cc4C(=O)C312 (some centres not stated) | 19.1
COc1cccc(/C=N\NC(=O)Cn2nnc3ccccc32)c1O | 97.7
O=C(Nc1c(Cl)ccc2nsnc12)c1ccc([N+](=O)[O-])o1 | 56.7
O=C(CCNC(=O)c1ccco1)Nc1ccc(SC(F)F)cc1 | 74.7
COc1ccc(/C=N/Nc2cc(C)nc3c(C)cccc23)cc1 | 37.2
NC1=NC2(CCCCC2)N=C(Nc2ccc(Br)cc2)N1 | 28.8
CN1CCN(C2=Cc3ccccc3Sc3cc(F)c(F)cc32)CC1 | 74.6
Oc1ccccc1Nc1nc(NCc2ccco2)c2ccccc2n1 | 137
Cc1cccc(Nc2cc(C)c3c(O)cccc3n2)c1C | 49.6
COc1ccc(-c2cnc(NCc3cc4c(cc3[N+](=O)[O-])OCO4)n2C)cc1 | 107
C#CCOCCOCCOCCNc1nc(N2CCN(C(=O)[C@H](Cc3cc4ccccc4[nH]3)n3cc([C@@H](N)C(C)CC)nn3)CC2)nc(N2CCN(C(=O)[C@H](Cc3cc4ccccc4[nH]3)n3cc([C@@H](N)CC(C)C)nn3)CC2)n1 (some centres not stated) | 54.5
NC[C@@H]1O[C@H](C23CC4CC(CC(C4)C2)C3)Cc2c1ccc(O)c2O | 39.8
Nc1nonc1-n1nnc(C(=O)N/N=C/c2cc(Br)ccc2O)c1CSC1=NCCS1 | 26
O=C(Nc1nonc1NC(=O)c1cccs1)c1cccs1 | 100
C#CCOCCOCCOCCNc1nc(N2CCN(C(=O)CCCCCCCCCCNC(=O)Cn3cc(CCCCCN)nn3)CC2)nc(N2CCN(C(=O)CCCCCCCCCCNC(=O)[C@H]([C@@H](C)CC)n3cc(CCCCCN)nn3)CC2)n1 | 71.3
Oc1ccc(C[C@@H]2CNCCN2CCC23CC4CC(CC(C4)C2)C3)cc1 | 78.9
Cc1cc(OCC(O)CNC(C)c2ccccc2)ccc1C(C)C (configuration not stated) | 82.6
C#CCOCCOCCOCCNc1nc(N2CCN(C(=O)[C@H](Cc3cc4ccccc4[nH]3)n3cc([C@@H](N)C(C)CC)nn3)CC2)nc(N2CCN(C(=O)[C@H](Cc3cc4ccccc4[nH]3)n3cc([C@@H](N)Cc4ccc(O)cc4)nn3)CC2)n1 (some centres not stated) | 60
Oc1cccc(C=NCc2ccccc2)c1O | 57.7
CN1CCN(c2cc3c(cc2F)c(=O)c(C(=O)O)cn3CCF)CC1 | 0.444

Structure (SMILES) | IC50 [µM]
O=C(N/N=C/c1cc(Cl)ccc1O)c1cccnc1 | 28.2
CN(Cc1ccccc1O)CC1CCCN(CCc2ccc(Cl)cc2)C1 (configuration not stated) | 51.6
CCN(CC)CCNc1nc(-c2ccc(OC)cc2)c(-c2ccc(OC)cc2)s1 | < 0.23
COc1c(N2CCN(C(=S)Nc3ccc(F)cc3)C(C)C2)c(F)cc2c(=O)c(C(=O)O)cn(C3CC3)c12 (configuration not stated) | 0.581
OCCNCc1cc(Br)ccc1OCc1ccc(Cl)cc1 | 121
Cc1cc(Br)ccc1OCCCCNCCO | 61.8
Brc1ccc2c(c1)C(OC1CN3CCC1CC3)c1ccccc1CS2 (configuration not stated) | 95.5
O=C1C2=C(Nc3ccccc3SC2c2ccco2)c2ccccc21 (configuration not stated) | 120
Cc1cc(C)n(-c2nc(NCCN(C)C)c3c4c(sc3n2)CCCC4)n1 | 99.4
C[n+]1c2n(c3ccccc31)N=C(c1ccc(-c3ccccc3)cc1)CS2 | 38
CNC[C@H](CC1CCCCC1)NC[C@H](Cc1ccccc1)NCCC12CC3CC(CC(C3)C1)C2 | 14.8
CN(C)CCCN1c2ccccc2Sc2ccccc21 | 103
O=C1C(SCCO)=C(SCCO)C(=O)c2ccccc21 | 122
OCCNc1nc(Nc2ccccc2)nc2ccccc12 | 35.2
O=C(c1cnn(C(=O)COc2ccccc2F)c1)c1cc(F)ccc1O | 83.3
Nc1ncncc1-c1ccc([N+](=O)[O-])cc1 | 67.4
O=C(N/N=C/c1ccc(O)c(O)c1)C1c2ccccc2Oc2ccccc21 | 106
O=C1OCCN1/N=C/c1ccc([N+](=O)[O-])o1 | 13.4
COc1nsnc1NS(=O)(=O)c1ccc(NC(=S)NC(=O)c2cccnc2)cc1 | 23.6
O=C(CSc1ccccn1)N/N=C/c1cc([N+](=O)[O-])ccc1O | 35.6
O=C(Nc1nnc(-c2ccccn2)o1)c1cccc(Cl)c1 | 107
NC1=NC[C@@H](Cc2ccc(O)cc2)N1CCCCC1CCCCC1 | 32.5
CO/N=C(/C(=O)N[C@@H]1C(=O)N2C(C(=O)O)=CCS[C@H]12)c1cnc(N)s1 | 59.8

Structure (SMILES) | IC50 [µM]
CC(C(=O)NC1CCS(=O)(=O)C1)N1C(=O)/C(=C/c2ccc(Cl)cc2)SC1=S (configuration not stated) | 18.3
O=C(N/N=C/c1c[nH]c2ccccc12)c1cccc(O)c1 | 130
CN(C)CCCNc1cc(C(C)(C)C)nc2c(-c3ccccc3)cnn12 | 75.7
CN(C)c1ccc(Nc2nc(N)c3ccccc3n2)cc1 | 62.4
C[C@H]1COc2c(C3(N)CC3)c(F)cc3c(=O)c(C(=O)O)cn1c23 | < 0.23
COc1ccc(C(=O)N/N=C/c2sc3ccccc3c2O)cc1 | 44.2
O=C(N/N=C/c1c[nH]c2ccccc12)c1cc2ccccc2o1 | 33.5
N#C/C(=C\c1ccc[nH]1)C(=O)NC1CC1 | 63.7
CN1CCN(C(c2ccc(Br)cc2)c2cc(Cl)c3cccnc3c2O)CC1 (configuration not stated) | 33.6
CCCCCc1ccc(OCCC[n+]2ccccc2)c(CCCCC)c1 | 82.7
CC(C)Oc1ccc(Cc2cnc(N)nc2N)cc1 | 50.3
C=CCn1c(NS(=O)(=O)c2ccccc2)c(S(=O)(=O)c2ccc(C)cc2)c2nc3ccccc3nc21 | 135
Fc1ccc(Nc2c3c(nc4ccccc24)CCC3)cc1 | 85
Fc1cccc(Nc2c3c(nc4ccccc24)CCC3)c1 | 126
CCCCCCCCCCOC(=O)Cn1c(COc2ccccc2OC)[n+](C)c2ccccc21 | 25.4
[O-][n+]1c2c(c3c4non(O)c4ccc31)CCCC2 | 130
Clc1ccc(OCCCNCc2ccccc2)c2ccccc12 | 33.8
O=C(N/N=C\c1c[nH]c2ccccc12)c1ccc(O)cc1 | 134
CCCCc1c(O)nc(SCC(=O)Nc2ccc3c(c2)CCC3)[nH]c1=O | 30.6
COc1c(N2CCN(C(=S)NCc3ccccc3)C(C)C2)c(F)cc2c(=O)c(C(=O)O)cn(C3CC3)c12 (configuration not stated) | 10.8
Cc1cc(C2N=C(N)Nc3nc4ccccc4n32)c(C)n1-c1ccccc1Cl (configuration not stated) | 88.3
Oc1ccc(/C=N/Nc2nccnc2Cl)c(O)c1 | 65.8
O=C1C=CC(=O)N1CCCCCCN1C(=O)C=CC1=O | 112

Structure (SMILES) | IC50 [µM]
COc1c(N2CCNC(C)C2)c(F)cc2c(=O)c(C(=O)O)cn(C3CC3)c12 (configuration not stated) | < 0.23
CN(C)CCCNc1c2ccccc2nc2ccccc12 | 64.3
CCCc1nnc(NC(=O)c2cn(CC)c3cc(N4CCN(C)CC4)c(F)cc3c2=O)s1 | 41.2
COc1cc(CNCCO)cc(Cl)c1OCc1ccc(Cl)cc1Cl | 39
CCCCCCCCCCCCCCCC[n+]1ccc(C(N)=O)cc1 | 15.4
CCC(C)(C)c1ccc(OCCCC[n+]2ccccc2)c(C(C)(C)CC)c1 | 67.9
CS(=O)(=O)c1ccc2nc(NC(=O)c3ccc(Cl)nc3)sc2c1 | 81.9
CCOC(=O)c1ccc(CNCc2ccc(Br)cc2)cc1 | 53.8
Oc1ccc(C[C@H]2CNCCN2CCCCC2CCCCC2)cc1 | 81.7
CCCCCCCSc1cc(OC)c(CCN(C)C)cc1OC | 83.5
Cn1c(SCC(=O)N/N=C/c2ccc([N+](=O)[O-])s2)nnc1-c1ccc(Cl)cc1 | 38.9
N=c1c2c(n(Cc3ccc(Cl)cc3Cl)c3c1CCC3)CCCC2 | 80.7
Oc1ccc(CN2CCN(Cc3ccccc3)CC2)c2cccnc12 | 39.5
Clc1ccc(CN2CCc3c([nH]c4ccccc34)C2)cc1Cl | 48.5
O=C(CCc1ccccc1)NNC(=S)NC(=O)c1ccccc1 | 122
O=c1c2ccccc2[nH]c2ccc(F)cc12 | 71.2
O=C(CSc1nc2ccccc2[nH]1)Nc1ccc(F)c(F)c1 | 46.9
Nc1nc(F)nc2c1ncn2[C@@H]1O[C@H](CO)[C@@H](O)[C@H]1O | 3.76
O=C1CN(/N=C/c2ccc([N+](=O)[O-])o2)C(=O)N1 | 32.2
O=C(NC1CCCCC1)c1ccc([N+](=O)[O-])o1 | 39.5
CC1CCC(C(C)C)C(OC(=O)Cn2c(COc3ccccc3)[n+](C)c3ccccc32)C1 (configuration not stated) | 51.5
CC12CN3CC(C)(CN(C1)C3c1ccc(Br)cc1O)C2 (configuration not stated) | 133
COc1ccccc1Nc1c2ccccc2nc2ccccc12 | 80.8

Structure (SMILES) | IC50 [µM]
OCCCNc1c2ccccc2nc2ccccc12 | 136
Cc1cc(C)n(/N=C/c2cc([N+](=O)[O-])ccc2O)c(=O)c1 | 70.5
COc1cc2c(cc1O)[C@H](Cc1ccc(Oc3cc(C[C@@H]4NCCc5cc(OC)c(O)cc54)ccc3O)cc1)NCC2 | 56.9
Cc1ccc(-c2csc(N=C(N)N)n2)c(C)c1 | 64.8
CN(C)CC/C=C1/c2ccccc2Sc2ccc(Cl)cc21 | 86.2
O=C(O)c1cn(C2CC2)c2cc(N3CCN(S(=O)(=O)c4ccc5c(c4)OCCO5)CC3)c(F)cc2c1=O | 28.2
CCn1cc(C(=O)O)c(=O)c2ccc(C)nc21 | 76.6
O=C(Cn1cnc2ccccc21)Nc1ccc(SC(F)F)cc1 | 78
O=C(O)/C(=C\C(=O)c1ccccc1)Nc1ccccc1 | 20.5
NC1=NC[C@H](Cc2ccc(O)cc2)N1CCCCC1CCCCC1 | 25.5
CCN1CCCC1CNC(=O)c1cc2cc(F)ccc2[nH]1 (configuration not stated) | 91
CCN(CC)C(=S)SSC(=S)N(CC)CC | 21.8
Clc1ccc(C[n+]2cc(-c3ccc(Cl)cc3)n3c2CCC3)cc1 | 101
O=C(N/N=C/c1cc([N+](=O)[O-])ccc1O)C1CC1 | 14.9
NC1=NC[C@H](c2ccccc2)N1CCc1cc(C(F)(F)F)cc(C(F)(F)F)c1 | 55.9
O=C(O)c1sccc1Oc1ccc(F)cc1[N+](=O)[O-] | 12.6
CN1C(=O)NC(c2ccc(O)cc2)C(C(=O)c2cccs2)C1(O)C(F)(F)F (configuration not stated) | 19.9
Oc1ccccc1C(Nc1nccs1)c1ccc2cccnc2c1O (configuration not stated) | 34.8
COc1cc(C(=O)N/N=C/c2ccc(OC(=O)c3cccc(C)c3)c(OC)c2)ccc1O | 20.9
CN1CCN(C2=Cc3ccccc3Sc3cc(F)ccc32)CC1 | 114
